From US10544134B2, “4-substituted coumarin derivatives and preparation methods and uses thereof” (SI CHUAN UNIVERSITY, priority 2015, dated 2020)
Like-named read-outs stand apart in the source and are kept apart here. Marks after values point to notes of the source that are not given here.

Tests used:
tumor = settings: cited from earlier work
melanoma A375 = experiment: Tumor cell proliferation inhibitory activity test in vitro (MTT); type: cell-based, human; settings: Homo sapiens, A-375, 72 hours, read-out: IC50 of compounds for tumor cells, Activity, A375
Excerpt: (§1) Human non-small cell lung cancer cell line NCI-H460, human small cell lung cancer cell line NCI-H446, human hepatocellular carcinoma cell strain HepG2, human colon carcinoma cell strain HCT116, human prostate cancer PC-3, human melanoma A375, colon carcinoma cell HCT-8, breast cancer cell MCF-7, ovarian cancer cell A2780s, drug-resistant ovarian cancer cell A2780/T, drug-resistant colon cancer cell HCT-8/T and doxorubicin-resistant breast cancer cell MCF-7/ADR are obtained from American Type Culture Collection (ATCC) and are cultured and preserved by the cell bank of State Key Laboratory of Biotherapy of Sichuan University. Above tumor cells are routinely cultured in DMEM culture medium containing 10% fetal bovine serum, 100 U·mL-1 penicillin and 100 mg·L−1 streptomycin, and in an incubator at 37° C. and with saturated humidity and 5% CO2 concentration.
(§2) Fill diluted cell suspension in the 96-well plate with 1000-10000 cells per well and incubate it in CO2 incubator overnight.
(§3) Replace with new medium containing various concentrations of compounds to be tested for the test group and replace with fresh medium with equal volume for the control group, each group is arranged with 5 parallel wells and incubated in an incubator at 37° C. and with 5% CO2 concentration.
(§4) Discard the supernatant after 72 hours, add 200 μL freshly prepared serum-free medium containing 0.2 mg/mL MTT into each well, continue to incubate at 37° C. for 1-4 hours, then stop incubation, carefully remove the culture supernatant in the wells and add 200 uL DMSO (dimethyl sulfoxide), oscillate with a miniature ultrasonic oscillator for 15-20 minutes to make the crystal fully dissolved and mixed. Determine OD values using a microplate reader at 570 nm with a reference wavelength of 450 nm.
(§5) Draw curves based on the growth inhibition rate for tumor cells of the same sample with different concentrations to get dose-response curve, so as to calculate IC50. Repeat each test for 3 times, measure IC50 (μM) or nanomolor concentration (nM) of compounds in different tumor cells.

prostate cancer PC-3 = experiment: as above; type: cell-based, human; settings: Homo sapiens, 72 hours, read-out: IC50 of compounds for tumor cells, Activity, PC-3
Excerpt: as §1, §2, §3, §4, §5

[1] = tested on: non-small cell lung cancer cell line NCI-H460; experiment: as above; type: cell-based, human; settings: Homo sapiens, NCI-H460, 72 hours, read-out: IC50 of compounds for tumor cells, Activity, H460
Excerpt: as §1, §2, §3, §4, §5

[2] = tested on: colon carcinoma cell HCT116; experiment: as above; type: cell-based, human; settings: Homo sapiens, HCT-116, 72 hours, read-out: IC50 of compounds for tumor cells, Activity, HCT116
Excerpt: as §1, §2, §3, §4, §5

[3] = tested on: hepatocellular carcinoma cell HEPG2; experiment: as above; type: cell-based, human; settings: Homo sapiens, HepG2, 72 hours, read-out: IC50 of compounds for tumor cells, Activity, HEPG2
Excerpt: as §1, §2, §3, §4, §5

breast cancer cell MCF-7 = experiment: as above; type: cell-based; settings: Homo sapiens
Excerpt: as §1, §2, §3, §4, §5

[4] = tested on: drug-resistant ovarian cancer cell A2780/T; experiment: as above; type: cell-based; settings: Homo sapiens, drug-resistant cells, 72 hours
Excerpt: as §1, §2, §3, §4, §5

[5] = tested on: ovarian cancer cell A2780s; experiment: as above; type: cell-based; settings: Homo sapiens, sensitive cells, 72 hours
Excerpt: as §1, §2, §3, §4, §5

[6] = tested on: taxol-resistant ovarian cancer cell A2780/Taxol; experiment: Pharmacodynamics in tumor-bearing nude mice, A2780/Taxol model; type: in vivo, mouse
Excerpt: (§6) Test condition: animal house of SPF level, use permit No. of experiment animals: SYXK (J) 2015-0023
(§7) Weigh the mouse and measure length and width of tumor using a vernier caliper in every two days, perform cervical dislocation for the nude mice after 20 days of drug administration, remove the tumor tissues, weigh and take a picture. Calculate tumor inhibition rate (%) eventually to evaluate anti-tumor effects.

[7] = tested on: human ovarian cancer cell A2780S; experiment: Pharmacodynamics in tumor-bearing nude mice, A2780S model; type: in vivo, mouse
Excerpt: as §6, §7

[8] = tested on: colon carcinoma cell HCT-8; experiment: Tumor cell proliferation inhibitory activity test in vitro (MTT); type: cell-based; settings: Homo sapiens, sensitive cells, 72 hours
Excerpt: as §1, §2, §3, §4, §5

[9] = tested on: doxorubicin-resistant breast cancer cell MCF-7/ADR; experiment: as above; type: cell-based; settings: Homo sapiens, NCI/ADR-RES, drug-resistant cells, 72 hours
Excerpt: as §1, §2, §3, §4, §5

HCT-8/V = experiment: as above; type: cell-based; settings: Homo sapiens, drug-resistant cells, 72 hours
[10] = tested on: mouse colon carcinoma C26; experiment: Pharmacodynamics in tumor-bearing mice, colon carcinoma C26 model
Protocol: Collect tumor cells under aseptic conditions, adjust cell density to 5×10^7 cells/mL with sterilized physiological saline, subcutaneously inoculate 0.2 mL into armpit and back of nude mice, remove the tumor when it grew to 1 cm diameter under aseptic conditions, slice it into 1 mm×1 mm tumor blocks and evenly and subcutaneously inoculate it into armpit and back of nude mice for subculture. Remove the tumor under aseptic conditions after 2 subcultures and when it grew to 1 cm diameter, slice it into 1 mm×1 mm tumor blocks and evenly and subcutaneously inoculate it into armpit and back of nude mice. Conduct random grouping of animals after 7 days when the tumor grew to 100-300 mm^3 and perform tail intravenous injection (i.v.) once per two days, with dosages and administration methods shown in Table 3 and Table 4.
(1) Tumor volume (TV), relative tumor volume (RTV) and relative tumor proliferation rate: measure long diameter and short diameter of tumor in every two days using a vernier caliper or ruler with 1/50 mm precision and dynamically observe anti-tumor effects of tested drugs.
Formula for calculating tumor volume (TV) is: TV (mm3)=a×b^2×π/6; wherein a and b stand for long diameter and short diameter respectively.
Calculate relative tumor volume (RTV) based on the measured results with formula: RTV=Vt/V0, wherein V0 stands for the measured TV of each group at the time of being grouped for administration (i.e. d0) and Vt stands for the TV value of each group for every measurement.
The indicator used to evaluate anti-tumor activity is the relative tumor proliferation rate T/C (%), with the calculating formula as following:
TRTV: relative tumor volume of treated group; CRTV: relative tumor volume of negative control group.
Kill the animal at the end of treatment, dissect and remove the tumor, weigh the tumor and take a picture. The tumor inhibition rate (%) is calculated as the following formula:

[11] = tested on: microtubule in hepatocellular carcinoma cell HepG2; experiment: Depolymerization on microtubule by immunofluorescence technique; type: cell-based, human; settings: HepG2, 16 h, three concentrations
Excerpt: Place round coverslips into 6-well plate, plate hepatocellular carcinoma cell HepG2 in the 6-well plate and make the cells adhere to the round coverslips.

[12] = tested on: human umbilical vein endothelial cells (HUVECs); experiment: Angiogenesis test on HUVECs; type: cell-based; settings: Matrigel, 8 h treatment
Protocol: (§8) Obtain neonate umbilical cords from clinical sources after being approved by relevant authorities, put them into sterile PBS solution, provide ice bags at the external to keep them under low temperature, and return to the clean bench to operate. Insert a blunt needle into the human umbilical vein and wash with sterile PBS solution for multiple times until cleaning up the tainted blood. Clamp the lower end of the cord with surgical clamps, add collagenase with 1 mg/mL concentration (purchased from Roche) for digestion for 15 to 20 minutes at room temperature and shake the cord up and down at intervals. After digestion, open the surgical clamp at the lower end, let the digestive solution flow into a 50 mL centrifuge tube and wash the cord for 2-3 times with sterile PBS solution. Centrifuge the collected solution for 3 minutes at 1500 rpm. Discard the supernatant, resuspend cells with EBM-2 medium (purchased from lonza) containing various growth factors and incubate them in an incubator at constant temperature of 37° C. with 5% CO2 concentration.
Place Matrigel (purchased from Becton Dickinson (BD)) at 4° C. and make it in liquid state; precool the pipette tip, 96-well plate and EP tube to be used in the test.
Add Matrigel into the 96-well plate at 50 μL/well and incubate it in an incubator at 37° C. with CO2 concentration for 45 min to make it solidify. […]

[13] = tested on: human umbilical vein endothelial cells (HUVECs); experiment: Wound healing test on HUVECs; type: cell-based; settings: 24 h of cells migration
Protocol: as §8
Collect HUVECs between the 3rd to 7th subculture generations and plate them in the 6-well plate. When the cells were about to form a confluent monolayer of cells, change the medium into a serum-free medium to starve the cells for 6 h. […]

plural tumor cells = settings: cited from earlier work
[14] = MCF7, 72 hours, read-out: IC50 of compounds for tumor cells, Activity, MCF-7
[15] = A2780/T model, 30 mg/kg intraperitoneal once/seven days
[16] = A2780s model, 30 mg/kg intraperitoneal once/seven days
[17] = MCF7, sensitive cells, 72 hours, read-out: IC50/nM MCF-7
[18] = cells marked (μM), read-out: IC50 MCF-7/ADR
[19] = cells marked (μM), read-out: IC50 HCT-8/V
[20] = subcutaneously transplanted mouse colon carcinoma C26, 5 mg/kg i.v. once/two days

For `COc1ccc2c(-c3ccc(OC)c(O)c3)cc(=O)oc2c1` [compound C], which “IC50 value, anti-tumor activity” value (tumor) is on record?
Its value is “dozens of nanomolar”.

For `COc1ccc(N(C)c2cc(=O)oc3ccccc23)cc1OC(=O)C1CCCC1` [COUM-73, 4-(N-methyl-N-(4-methoxy-3-(cyclopentyl-carbonyloxy)benzene)-amino) Coumarin], which IC50 (melanoma A375) is on record?
Its IC50 is 0.01 to 10 nM.

And the IC50 (prostate cancer PC-3)?
Its IC50 is 0.01 to 10 nM.

And the IC50 [1]?
The IC50 was 0.01 to 10 nM.

What about the IC50 [2] of the same molecule?
The IC50 was 0.01 to 10 nM.

What about the IC50 [3] of the same molecule?
The IC50 was 0.01 to 10 nM.

What about the IC50 (breast cancer cell MCF-7; [14]) of the same molecule?
Its IC50 is 0.01 to 10 nM.

What about the IC50 [4] of the same molecule?
The IC50 was 3.34 ± 0.101 nM.

What about the IC50 [5] of the same molecule?
The IC50 was 1.68 ± 0.075 nM.

What does the source list for `CC(=O)O[C@H]1C(=O)[C@@]2(C)[C@H]([C@H](OC(=O)c3ccccc3)[C@]3(O)C[C@H](OC(=O)[C@H](O)[C@@H](NC(=O)c4ccccc4)c4ccccc4)C(C)=C1C3(C)C)[C@]1(OC(C)=O)CO[C@@H]1C[C@@H]2O` [Taxol]?
Death rate [6, 15]: 0/6; T/C (%) [6, 15]: 75.4%; Tumor volume (mm^3) Final [6, 15]: 936.4 ± 347.9^ mm^3; Tumor volume (mm^3) Initial [6, 15]: 155.6 ± 20.6 mm^3; Tumor weight (g) X ± SD [6, 15]: 0.79 ± 0.41 ^ g; Tumor weight Inhibition rate % [6, 15]: 37.7%; Mouse weight (g) Final ([6]; mouse, in vivo, ip, 30 mg/kg): 19.4 ± 1.0 g; Mouse weight (g) Initial ([6]; mouse, in vivo, ip, 30 mg/kg): 20.3 ± 0.8 g; Death rate [7, 16]: 0/6; Mouse weight (g) Final [7, 16]: 18.2 ± 0.4 g; Mouse weight (g) Initial [7, 16]: 21.0 ± 0.7 g; T/C (%) [7, 16]: 13.1%; Tumor volume (mm^3) Final [7, 16]: 184.8 ± 26.6 ^c mm^3; Tumor volume (mm^3) Initial [7, 16]: 138.1 ± 25.6 mm^3; Tumor weight (g) X ± SD [7, 16]: 0.28 ± 0.07 ^c g; Tumor weight Inhibition rate % [7, 16]: 82.9%; Weight drop in average ([7]; mouse, in vivo): about 2 g; IC50 (breast cancer cell MCF-7; [17]): 32.3 ± 19.5 nM; IC50 [4]: 8120 ± 185 nM; IC50 [8]: 37 ± 23.9 nM; IC50 [9, 18]: 9.15 µM; IC50 [5]: 58.1 ± 24.1 nM; IC50 (HCT-8/V; [19]): 0.189 ± 0.052 µM

Which IC50 (breast cancer cell MCF-7; [17]) does the source give for `CC[C@]1(O)C[C@H]2CN(CCc3c([nH]c4ccccc34)[C@@](C(=O)OC)(c3cc4c(cc3OC)N(C=O)[C@H]3[C@@](O)(C(=O)OC)[C@H](OC(C)=O)[C@]5(CC)C=CCN6CC[C@]43[C@@H]65)C2)C1` [Vincristin, vincristin] here?
The IC50 was 54.7 nM.

What about the IC50 [4] of the same molecule?
The IC50 was 476 ± 76.1 nM.

What about the IC50 [8] of the same molecule?
Its IC50 is 14.8 ± 3.15 nM.

What about the IC50 [9, 18] of the same molecule?
Its IC50 is 5.85 ± 1.39 µM.

And the IC50 [5]?
The IC50 was 22.4 ± 2.68 nM.

What about the IC50 (HCT-8/V; [19]) of the same molecule?
The IC50 was 0.023 ± 0.004 µM.

Which results are given for `COc1ccc(N(C)c2nc(C)nc3ccccc23)cc1` [MPC-6827]?
IC50 (melanoma A375): 0.01 to 10 nM; IC50 (prostate cancer PC-3): 0.01 to 10 nM; IC50 [1]: 0.01 to 10 nM; IC50 [2]: 0.01 to 10 nM; IC50 [3]: 0.01 to 10 nM; Mouse weight during the treatment ([10]; colon carcinoma C26 model, 5 mg/kg i.v. once/two days): significant drops in weight and even died; Average tumor weight [10, 20]: 0.525 g; Tumor inhibition rate (%) [10, 20]: 78.66%; Inhibition of polymerization of microtubule (immunofluorescence observation) [11]: fails to form orderly filamentous structures due to inhibited polymerization; IC50 (breast cancer cell MCF-7; [14]): 0.01 to 10 nM; IC50 (breast cancer cell MCF-7; [17]): 0.581 ± 0.004 nM; IC50 [4]: 4.11 ± 0.062 nM; IC50 [8]: 3.12 ± 0.066 nM; IC50 ([9]; read-out: IC50/nM MCF-7/ADR): 0.000699 ± 5.3e-05 µM; IC50 [5]: 3.16 ± 0.034 nM; IC50 (HCT-8/V; read-out: IC50/nM HCT-8/V): 0.00375 ± 0.000131 µM; Inhibition of angiogenesis of HUVECs [12]: inhibit angiogenesis of HUVECs in a dose-dependent manner; Inhibition of migration of HUVECs [13]: inhibit migration of HUVECs in a dose-dependent manner; IC50 (plural tumor cells): 1 to 10 nM

For `COc1ccc2c(c1)CCCN2c1cc(=O)oc2ccccc12` [COUM-36, 4-(6-methoxy-3,4-dihydroquinoline-1(2H)-yl) coumarin], which IC50 (melanoma A375) is on record?
Its IC50 is > 5000 nM.

And the IC50 (prostate cancer PC-3)?
The IC50 was > 5000 nM.

And the IC50 [1]?
Its IC50 is > 5000 nM.

What about the IC50 [2] of the same molecule?
The IC50 was > 5000 nM.

And the IC50 [3]?
The IC50 was > 5000 nM.

And the IC50 (breast cancer cell MCF-7; [14])?
Its IC50 is > 5000 nM.

With `COc1ccc2c(c1)CN(c1cc(=O)oc3cc(OC)ccc13)CCC2` [COUM-39, 4-(8-methoxy-1,3,4,5-tetrahydro-2H-benzoazepine-2-yl)-7-methoxycoumarin] as the molecule, how does the IC50 (melanoma A375) read?
The IC50 was 100 to 5000 nM.

And the IC50 (prostate cancer PC-3)?
Its IC50 is 100 to 5000 nM.

What about the IC50 [1] of the same molecule?
Its IC50 is 100 to 5000 nM.

What about the IC50 [2] of the same molecule?
The IC50 was 100 to 5000 nM.

What about the IC50 [3] of the same molecule?
The IC50 was 100 to 5000 nM.

And the IC50 (breast cancer cell MCF-7; [14])?
Its IC50 is 100 to 5000 nM.
